Measurements: patent publication US9518022B2, “Anti-HIV compounds” (priority 2014, dated 2016)
pEC50: −log10 of the molar value. Like-named read-outs stand apart in the source and are kept apart here.

Key:
[1] = Cytotoxicity assay (AlamarBlue) in mock infected MT-2 cells; type: cell-based; conditions: human
Outline: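 MT-2 cells at 2×10^4 cells/well, mock-infected, treated with 3-fold serial compound dilutions for 96 h at 37 °C. AlamarBlue added for 3 h, fluorescence read at 545/590 nm; % inhibition versus solvent control fitted to a 4-parameter logistic to give CC50.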

[2] = tested on: HIV-1 NL4-3 viral clone engineered to express Renilla luciferase in place of Nef; assay: microbe, parasite or virus in culture; type: cell-based; conditions: Human immunodeficiency virus 1, NL43, MT2, 96 h
Protocol: The present assay was used to screen candidate antiviral compounds by quantification of virus spread and production over several rounds of infection in vitro. MT-2, a HIV-1 permissive human T-cell line, was seeded in microtiter plates and was simultaneously treated with serially diluted compound and inoculated with a HIV-1 NL4-3 viral clone engineered to express Renilla luciferase in place of Nef. Following treatment, the culture was incubated for 96 hours. After the incubation, media was collected and used to estimate relative infectivity on the indicator cell line, TZM-bl. Additionally, viral spread was quantified by measuring luciferase activity via a commercially available luciferase substrate. In parallel, MT-2 cells were seeded and inoculated with mock virus in the presence of serially diluted compound. Compound toxicity was quantified 96 hours after treatment with AlamarBlue.
MT-2 (NIH Aids reagent program 237) cells were grown and maintained in an incubator at 37° C. with 5% CO2 using a basal medium of RPMI-1640 supplemented with 10% FBS. Cells were seeded in 100 μl at 2×10^4 cells/well in white walled 96-well microtiter plates. Candidate compounds were 3-fold serially diluted in the appropriate solvent. Solvent without compound was used as a no drug reference. Cells were inoculated at a multiplicity of 0.027 with an HIV-1 NL4-3 virus stock engineered to express Renilla luciferase in place of Nef. Diluted virus stock was first added to serially diluted compound. Compound and virus were delivered to cells in an equal volume (100 μl) and treated cultures were returned to the incubator for 96 hours. In parallel, plates for cytotoxicity estimates were prepared in the same way except cells were plated in clear walled 96-well microtiter plates and were mock infected.
At 96 hours post infection, 100 μl virus containing culture supernatant was collected from the treated and infected cultures and serially diluted in DMEM supplemented with 10% FBS, 1% sodium pyruvate, and 20 μg/ml DEAE dextran. One day prior, TZM-bl (ATCC PTA-5659) were cultured in basal medium of DMEM supplemented with 10% FBS and 1% sodium pyruvate and seeded at 7.5×10^3 cells/well in black walled 96-well microtiter plates. Diluted virus containing culture supernatant was transferred to TZM-bl cultures and incubated for 48 hours at 37° C. with 5% CO2. Infected TZM-bl cultures were fixed for 5 minutes with a 1% formaldehyde/0.2% gluteraldehyde/PBS solution then washed three times with PBS. Fixed cultures were incubated at 37° C. for 25 minutes with a 200 μg/ml MUG (4-Methylumbelliferyl β-D-[…])/DMEM solution. The reaction was stopped with an equal volume of 1M sodium carbonate and read at 360, 449 nm on fluorescence plate reader (Biotek).
At 96 hours post infection, 100 μl of culture supernatant was removed from the treated and infected cultures and EnduRen live cell substrate (Promega) was added at a final concentration 1.3 μg/ml. Cells were incubated for 1.5 hours at 37° C. with 5% CO2 then read on a luminescence plate reader (Biotek).
For all assays, data was imported into Accelrys Assay Explorer 3.3. In Assay Explorer, % inhibition (antiviral or cytotoxicity) was calculated using the solvent control as a reference by the following equation: 1−(SignalCompound/SignalReference). The % Inhibition and compound concentration data was fitted using the following 4-parameter logistic model (Assay Explorer model 42):
[formula] where X is compound concentration, Y is % inhibition, D is the maximum % Inhibition (constrained to 100%), C is IC50 value or inflection point, B is the hill slope, and A is the minimum % inhibition (constrained to 0%). The IC50 value is reported as the EC50 or CC50 depending on the assay endpoint. EC50 represents the effective concentration at which virus replication is inhibited by 50 percent. CC50 represents the concentration that results in the death of 50 percent of the host cells. […]

[3] = mock infected MT-2 cells, 96 hours, AlamarBlue, read-out: CC50

Structure (SMILES): COc1cc2c(cc1OCc1ccccc1)CCNC2/C=C/c1ccc2cn[nH]c2c1 (centres unmarked) [BT, 6-(benzyloxy)-1-[(E)-2-(1H-indazol-6-yl)ethenyl]-7-methoxy-1,2,3,4-tetrahydroisoquinoline]
- CC50 at 96 h [1]: 7.98 µM
- pEC50 [2]: 6.21

Structure (SMILES): COc1cc2c(cc1OCc1ccccc1)CCNC2/C=C/c1cccc2c1ccn2C(=O)OC(C)(C)C (centres unmarked) [CK, tert-butyl 4-[(E)-2-[6-(benzyloxy)-7-methoxy-1,2,3,4-tetrahydroisoquinolin-1-yl]ethenyl]-1H-indole-1-carboxylate]
- CC50 at 96 h [1]: 5.99 µM
- pEC50 [2]: 6.09

Structure (SMILES): COc1cc2c(cc1OCc1ccccc1)CCNC2/C=C/c1cccc2[nH]ccc12 (centres unmarked) [CL, 6-(benzyloxy)-1-[(E)-2-(1H-indol-4-yl)ethenyl]-7-methoxy-1,2,3,4-tetrahydroisoquinoline]
- CC50 at 96 h [1]: 7.2 µM
- pEC50 [2]: 5.82

Structure (SMILES): COc1cc2c(cc1OCc1ccccc1)CCNC2/C=C/c1ccc2c(ccn2C(=O)OC(C)(C)C)c1 (centres unmarked) [CM, tert-butyl 5-[(E)-2-[6-(benzyloxy)-7-methoxy-1,2,3,4-tetrahydroisoquinolin-1-yl]ethenyl]-1H-indole-1-carboxylate]
- CC50 at 96 h [1]: 10 µM
- pEC50 [2]: 5.89

Structure (SMILES): COc1cc2c(cc1OCc1ccccc1)CCNC2/C=C/c1cccc2ccn(C(=O)OC(C)(C)C)c12 (centres unmarked) [CN, tert-butyl 7-[(E)-2-[6-(benzyloxy)-7-methoxy-1,2,3,4-tetrahydroisoquinolin-1-yl]ethenyl]-1H-indole-1-carboxylate]
- CC50 at 96 h [1]: 19.6 µM
- pEC50 [2]: 5.74

Structure (SMILES): COc1cc2c(cc1OCc1ccccc1)CCNC2/C=C/c1ccc(F)c(O)c1F (centres unmarked) [CO, 3-[(E)-2-[6-(benzyloxy)-7-methoxy-1,2,3,4-tetrahydroisoquinolin-1-yl]ethenyl]-2,6-difluorophenol]
- CC50 at 96 h [1]: 10 µM
- pEC50 [2]: 5.22

Structure (SMILES): COc1cc2c(cc1OCc1ccccc1)CCNC2/C=C/c1cccc(S(C)(=O)=O)c1 (centres unmarked) [CP, 6-(benzyloxy)-1-[(E)-2-(3-methanesulfonylphenyl)ethenyl]-7-methoxy-1,2,3,4-tetrahydroisoquinoline]
- CC50 at 96 h [1]: 20.6 µM
- pEC50 [2]: 5.51

Structure (SMILES): COc1cc2c(cc1/C=C/C1NCCc3cc(OCc4ccccc4)c(OC)cc31)OCCO2 (centres unmarked) [CQ, 6-(benzyloxy)-7-methoxy-1-[(E)-2-(7-methoxy-2,3-dihydro-1,4-benzodioxin-6-yl)ethenyl]-1,2,3,4-tetrahydroisoquinoline]
- CC50 at 96 h [1]: 1.4 µM
- pEC50 [2]: 7.22

Structure (SMILES): COc1cc2c(cc1/C=C/C1NCCc3cc(OCc4ccccc4)c(OC)cc31)OCO2 (centres unmarked) [CR, 6-(benzyloxy)-7-methoxy-1-[(E)-2-(6-methoxy-2H-1,3-benzodioxol-5-yl)ethenyl]-1,2,3,4-tetrahydroisoquinoline]
- CC50 at 96 h [1]: 3.3 µM
- pEC50 [2]: 6.92

Structure (SMILES): COc1cc2c(cc1OCc1ccccc1)CCNC2/C=C/c1ccc2ccn(C(=O)OC(C)(C)C)c2c1 (centres unmarked) [CS, tert-butyl 6-[(E)-2-[6-(benzyloxy)-7-methoxy-1,2,3,4-tetrahydroisoquinolin-1-yl]ethenyl]-1H-indole-1-carboxylate]
- CC50 at 96 h [1]: 6.15 µM
- pEC50 [2]: 6.04

Structure (SMILES): COc1cc(/C=C/C2NCCc3cc(OCc4ccccc4)c(OC)cc32)c(N(C)C)cc1OC (centres unmarked) [CT, 2-[(E)-2-[6-(benzyloxy)-7-methoxy-1,2,3,4-tetrahydroisoquinolin-1-yl]ethenyl]-4,5-dimethoxy-N,N-dimethylaniline]
- CC50 at 96 h [1]: 8.9 µM
- pEC50 [2]: 6.70

Structure (SMILES): COc1cc2c(cc1OCc1ccccc1)CCNC2/C=C/c1cccnc1N(C)C (centres unmarked) [CU, 3-[(E)-2-[6-(benzyloxy)-7-methoxy-1,2,3,4-tetrahydroisoquinolin-1-yl]ethenyl]-N,N-dimethylpyridin-2-amine]
- CC50 at 96 h [1]: 19.9 µM
- pEC50 [2]: 5.85

Structure (SMILES): COc1cc(C(C)(C)C)c(/C=C/C2NCCc3cc(OCc4ccccc4)c(OC)cc32)cc1OCc1ccccc1 (centres unmarked) [Example J, 6-Benzyloxy-1-[(E)-2-(5-benzyloxy-2-tert-butyl-4-methoxy-phenyl)vinyl]-7-methoxy-1,2,3,4-tetrahydroisoquinoline]
- CC50 at 96 h [1]: 5.36 µM

Structure (SMILES): COC(=O)N1CCc2cc(OCc3ccccc3)c(OC)cc2C1/C=C/c1ccc(OC)c(OCc2ccccc2)c1 (centres unmarked) [Example L, Methyl 6-benzyloxy-1-[(E)-2-(3-benzyloxy-4-methoxy-phenyl)vinyl]-7-methoxy-3,4-dihydro-1H-isoquinoline-2-carboxylate]
- CC50 at 96 h [1]: > 20 µM

Structure (SMILES): COc1cc(C)c(/C=C/C2c3cc(OC)c(OCc4ccccc4)cc3CCN2C(=O)NC(C)(C)C)cc1OCc1ccccc1 (centres unmarked) [Example O, 6-benzyloxy-1-[(E)-2-(5-benzyloxy-4-methoxy-2-methyl-phenyl)vinyl]-N-tert-butyl-7-methoxy-3,4-dihydro-1H-isoquinoline-2-carboxamide]
- CC50 at 96 h [1]: > 10 µM

Structure (SMILES): COc1cc(C)c(CCC2NCCc3cc(OCc4ccccc4)c(OC)cc32)cc1OCc1ccccc1 (centres unmarked) [Example Q, 6-benzyloxy-1-[2-(5-benzyloxy-4-methoxy-2-methyl-phenyl)ethyl]-7-methoxy-1,2,3,4-tetrahydroisoquinoline]
- CC50 at 96 h [1]: 5.15 µM

Structure (SMILES): COc1cc(C)c(/C=C/C2c3cc(OC)c(OCc4ccccc4)cc3CCN2C(N)=O)cc1OCc1ccccc1 (centres unmarked) [Example R, 6-benzyloxy-1-[(E)-2-(5-benzyloxy-4-methoxy-2-methyl-phenyl)vinyl]-7-methoxy-3,4-dihydro-1H-isoquinoline-2-carboxamide]
- CC50 at 96 h [1, 3]: 39.3 µM

Structure (SMILES): COc1cc(/C=C/C2NCCc3cc(OC)c(OCc4ccccc4)cc32)ccc1OCc1ccccc1 (centres unmarked) [Example S, 7-benzyloxy-1-[(E)-2-(4-benzyloxy-3-methoxy-phenyl)vinyl]-6-methoxy-1,2,3,4-tetrahydroisoquinoline]
- CC50 at 96 h [1]: 8.25 µM

Structure (SMILES): COc1cc(C)c(/C=C/C2c3cc(OC)c(OCc4ccccc4)cc3CCN2C(=O)c2ccncc2)cc1OCc1ccccc1 (centres unmarked) [Example U, [6-benzyloxy-1-[(E)-2-(5-benzyloxy-4-methoxy-2-methyl-phenyl)vinyl]-7-methoxy-3,4-dihydro-1H-isoquinolin-2-yl]-(4-pyridyl)methanone]
- CC50 at 96 h [1]: > 100 µM

Structure (SMILES): COc1ccc(/C=C/C2c3cc(OC)c(OCc4ccccc4)cc3CCN2C)cc1OCc1ccccc1 (centres unmarked) [Example V, 6-benzyloxy-1-[(E)-2-(3-benzyloxy-4-methoxy-phenyl)vinyl]-7-methoxy-2-methyl-3,4-dihydro-1H-isoquinoline]
- CC50 at 96 h [1]: 6.68 µM

Structure (SMILES): COc1cc2c(cc1OCc1ccccc1)CCNC2/C=C/c1ccccc1C (centres unmarked) [Example W, 6-benzyloxy-7-methoxy-1-[(E)-2-(o-tolyl)vinyl]-1,2,3,4-tetrahydroisoquinoline]
- CC50 at 96 h [1, 3]: 4 µM

Structure (SMILES): COc1cc2c(cc1OCc1ccccc1)CCNC2/C=C/c1ccc(F)cc1C (centres unmarked) [Example X, 6-benzyloxy-1-[(E)-2-(4-fluoro-2-methyl-phenyl)vinyl]-7-methoxy-1,2,3,4-tetrahydroisoquinoline]
- CC50 at 96 h [1, 3]: 5.3 µM

Structure (SMILES): COc1cc(C)c(/C=C/C2c3cc(OC)c(OCc4ccccc4)cc3CCN2C(=O)OC(C)(C)C)cc1OCc1ccccc1 (centres unmarked) [Example Y, tert-butyl 6-benzyloxy-1-[(E)-2-(5-benzyloxy-4-methoxy-2-methyl-phenyl)vinyl]-7-methoxy-3,4-dihydro-1H-isoquinoline-2-carboxylate]
- CC50 at 96 h [1]: 28.1 µM
